Experimental data as given in patent US20240173432A1, “Compositions and Methods for Treatment of Myotonic Dystrophy Type 1 with CRISPR/SluCas9” (Vertex Pharmaceuticals Incorporated, priority 2021, published 2024).

What was measured:
[1] = test system: CAG foci in primary DM1 patient myoblasts; experiment: Single-cut screening: CAG foci staining; assay type: cell-based, human; conditions: single sgRNA; for % of CAG foci positive nuclei (DNA-PKi): DNA-PKi treated
Outline: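 Primary DM1 patient myoblasts were PFA-fixed and hybridized with […] (1 ng/μL, 15 min at 80° C) in 30% formamide/2×SSC, followed by anti-MBNL1 immunostaining and Hoechst counterstain. CAG RNA foci were quantified by high-content confocal imaging after single-cut SuCas9 sgRNA editing.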

[2] = test system: 3′ UTR of the human DMPK gene; experiment: Single-cut screening: indel editing efficiency by Sanger sequencing and ICE analysis in primary DM1 patient myoblasts; assay type: cell-based; conditions: vehicle-treated samples; for Indel efficiency: single SluCas9 sgRNA RNP in primary DM1 patient myoblasts, Sanger sequencing and ICE analysis; for indel efficiency (Sanger sequencing and ICE analysis): single-cut, SluCas9 RNP, 72 hrs post nucleofection, wild-type allele
Outline: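 Indels were estimated by ICE from Sanger chromatograms of PCR amplicons covering the DMPK 3′ UTR wild-type allele, using only vehicle-treated samples; sgRNAs with R2<0.9 are flagged. Samples came from primary DM1 patient myoblasts (2 × 10^5) harvested 72 h after nucleofection with 30 pmol SluCas9 and 90 pmol single sgRNA RNP.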

[3] = test system: CUG foci in primary DM1 patient myoblasts; experiment: Single-cut screening: FISH staining of CUG RNA foci; assay type: cell-based, human; conditions: single sgRNA, primary DM1 patient myoblasts; for % of CUG foci free nuclei (DNA-PKi): DNA-PKi treated
Outline: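 CD56-purified primary DM1 patient myoblasts nucleofected with SluCas9:sgRNA RNP (30:90 pmol, single-cut), then DMSO or 3 μM DNA-PK inhibitor for 48 h. At 72 h post-nucleofection, cells fixed and stained for CUG foci with Cy3-PNA(CAG)5 probe (1 ng/μL, 80 °C), co-stained for MBNL1 and Hoechst, imaged by high-content confocal microscopy.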

Substance | % of CAG foci positive nuclei (DNA-PKi) [1] [%] | % of CAG foci positive nuclei (Vehicle) [1] [%] | Indel efficiency [2] [%] | % of CUG foci free nuclei (DNA-PKi) [3] [%] | % of CUG foci free nuclei (Vehicle) [3] [%] | indel efficiency (Sanger sequencing and ICE analysis) [2]
CCTGCAGTTTGCCCATCCACGT (guide RNA; chemistry not fully specified) [SluD11] | 2.22 | 1.7 | 16 | 52.55 | 14.54 | –
CCTGTAGCCTGTCAGCGAGTCG (listed as DNA, chemistry not fully specified) [SluD68] | 1.94 | 2.3 | 72 | 25.13 | 12.88 | high editing IN4DEL efficiency
CGAGAGCAGCGCAAGTGAGGAG (guide RNA; chemistry not fully specified) [SluD49] | 2.3 | 2.83 | 41 | 37.77 | 12.39 | –
CGAGGGTCGGGGGTGGGGGTCC (guide RNA; chemistry not fully specified) [SluD88] | 2.42 | 1.4 | 7 | 31.95 | 11.11 | –
CGCCCAGCTCCAGTCCTGTGAT (guide RNA; chemistry not fully specified) [SluU27] | 1.94 | 1.64 | 1 | 38.24 | 7.71 | –
CGCCCCCTAGCggccggggagg (guide RNA; as printed in the source, key not given here) [SluU41] | 1.08 | 0.74 | 13 | 47.52 | 13.34 | –
CGCCGAAGCGGGCGGAGCCGGC (guide RNA; chemistry not fully specified) [SluD58] | 1.96 | 1.37 | 33 | 31.45 | 18.03 | –
CGCGCCAGACGCTCCCCAGAGC (listed as DNA, chemistry not fully specified) [SluD34] | 2.01 | 3.9 | 71 | 31.92 | 15 | high editing IN4DEL efficiency
CGGAGCGGTTGTGAACTGGCAG (guide RNA; chemistry not fully specified) [SluU20] | 1.43 | 1.15 | 30 | 49.95 | 18.45 | –
CGGATCACAGGACTGGAGCTGG (guide RNA; chemistry not fully specified) [SluU29] | 1.82 | 1.18 | 67 | 48.49 | 27.28 | –
CGGCTCCGCCCGCTTCGGCGGT (guide RNA; chemistry not fully specified) [SluD60] | 1.16 | 1.02 | 0 | 16.87 | 6.71 | –
